In patent US20110020494A1, “GROWTH MEDIUM FOR LACTIC ACID BACTERIA” (priority 2007, published 2011):

Tested on: mesophilic culture of Lactococcus
Assay: Growth of Lactococcus with formate and purine supplementation: pH of inoculated milk over time
Assay type: cell-based
Settings: milk 1% fat, 32° C., inoculation 0.022%, IMP 10 ppm, NaF 5 ppm
Experimental: In these experiments, the growth of Lactococcus in the presence of supplemented formate and purine was investigated. Equal amounts of milk (pasteurized milk w/1% fat) were added to four 1 liter Pyrex bottles. The bottles were placed in the water bath at 32° C.
All bottles were inoculated with a mesophilic culture of Lactococcus (0.022%). When the milk reached 32° C., three of the four bottles were supplemented with Na formate and/or disodium-5′-inosinate (IMP), as shown below.
The initial pH of the milk was recorded. The pH in the bottles was measured every hour for the first two hours and then every half hour until a pH of around 4.6 was reached.
The pH of each of the bottles, as a function of time, is shown below, and graphed in FIG. 1.

Compound	pH (time 0 hours (initial pH))	pH (time 1 hour)	pH (time 2 hours)	pH (time 2.6 hours)	pH (time 3 hours)	pH (time 3.5 hours)	pH (time 4 hours)	pH (time 5.1 hours)	pH (time 5.6 hours)
disodium-5′-inosinate [IMP]	6.54	6.48	6.27	5.98	5.73	5.42	5.17	4.6	4.5
O=C[O-].[Na+] [NaF, sodium formate]	6.54	6.48	6.29	6.03	5.79	5.51	5.26	4.66	4.54
